Earlier results in PubChem BioAssay AID1259409 (Chemical Carcinogenesis Research Information System (CCRIS), 2018).

Test system: rodent chemically induced tumor inhibition, incidence and multiplicity
Experiment: CCRIS tumor inhibitor studies
Conditions: Carcinogen: N-NITROSOBIS(2-OXYPROPYL)AMINE, 60599-38-4, Route [Inhibitor]: ORAL, Species: HAMSTER, Promoter: NONE USED

## CCNC(=O)/C=C(C)/C=C/C=C(C)/C=C/C1=C(C)CCCC1(C)C
Dose [Inhibitor]: 0.05, 0.1 OR 0.2 MILLIMOLAR/KG DIET FOR 32 WK STARTING 1 WK AFTER THE CARCINOGEN DOSE (STUDY DURATION: 33 WK), Strain/Sex: SYRIAN/FEMALE, Target Tissue: Type of Lesion: GALL BLADDER: ADENOMA, Dose [Carcinogen]: 40 MG/KG ONCE
  tumour outcome (control, treated, inhibition, significance): 6/10 (60%), 2/23 (9%), 85%, p<0.025
Dose [Inhibitor]: 0.05, 0.1 OR 0.2 MILLIMOLAR/KG DIET FOR 32 WK STARTING 1 WK AFTER THE CARCINOGEN DOSE (STUDY DURATION: 33 WK), Strain/Sex: SYRIAN/FEMALE, Target Tissue: Type of Lesion: LIVER: ADENOMA, Dose [Carcinogen]: 40 MG/KG ONCE
  tumour outcome (control, treated, inhibition, significance): 6/10 (60%), 13/23 (59%), 2%, not significant
Dose [Inhibitor]: 0.05, 0.1 OR 0.2 MILLIMOLAR/KG DIET FOR 32 WK STARTING 1 WK AFTER THE CARCINOGEN DOSE (STUDY DURATION: 33 WK), Strain/Sex: SYRIAN/FEMALE, Target Tissue: Type of Lesion: LUNG: ADENOMA, Dose [Carcinogen]: 40 MG/KG ONCE
  tumour outcome (control, treated, inhibition, significance): 3/10 (30%), 9/23 (41%), -37%, not significant
Dose [Inhibitor]: 0.05, 0.1 OR 0.2 MILLIMOLAR/KG DIET FOR 32 WK STARTING 1 WK AFTER THE CARCINOGEN DOSE (STUDY DURATION: 33 WK), Strain/Sex: SYRIAN/FEMALE, Target Tissue: Type of Lesion: PANCREAS: ADENOMA, Dose [Carcinogen]: 40 MG/KG ONCE
  tumour outcome (control, treated, inhibition, significance): 10/10 (100%), 22/23 (96%), 4%, not significant
Dose [Inhibitor]: 0.05, 0.1 OR 0.2 MILLIMOLAR/KG DIET FOR 32 WK STARTING 1 WK AFTER THE CARCINOGEN DOSE (STUDY DURATION: 33 WK), Strain/Sex: SYRIAN/FEMALE, Target Tissue: Type of Lesion: PANCREAS: CARCINOMA, Dose [Carcinogen]: 40 MG/KG ONCE
  tumour outcome (control, treated, inhibition, significance): 4/10 (40%), 10/23 (43%), -8%, not significant
Dose [Inhibitor]: 0.05, 0.1 OR 0.2 MILLIMOLAR/KG DIET FOR 32 WK STARTING 1 WK AFTER THE CARCINOGEN DOSE (STUDY DURATION: 33 WK), Strain/Sex: SYRIAN/MALE, Target Tissue: Type of Lesion: COMMON DUCT: ADENOMA, Dose [Carcinogen]: 40 MG/KG ONCE
  tumour outcome (control, treated, inhibition, significance): 4/12 (33%), 14/26 (54%), -64%, not significant
Dose [Inhibitor]: 0.05, 0.1 OR 0.2 MILLIMOLAR/KG DIET FOR 32 WK STARTING 1 WK AFTER THE CARCINOGEN DOSE (STUDY DURATION: 33 WK), Strain/Sex: SYRIAN/MALE, Target Tissue: Type of Lesion: GALL BLADDER: ADENOMA, Dose [Carcinogen]: 40 MG/KG ONCE
  tumour outcome (control, treated, inhibition, significance): 3/12 (25%), 10/26 (39%), -56%, not significant
Dose [Inhibitor]: 0.05, 0.1 OR 0.2 MILLIMOLAR/KG DIET FOR 32 WK STARTING 1 WK AFTER THE CARCINOGEN DOSE (STUDY DURATION: 33 WK), Strain/Sex: SYRIAN/MALE, Target Tissue: Type of Lesion: LIVER: ADENOMA, Dose [Carcinogen]: 40 MG/KG ONCE
  tumour outcome (control, treated, inhibition, significance): 6/12 (50%), 12/26 (46%), 8%, not significant
Dose [Inhibitor]: 0.05, 0.1 OR 0.2 MILLIMOLAR/KG DIET FOR 32 WK STARTING 1 WK AFTER THE CARCINOGEN DOSE (STUDY DURATION: 33 WK), Strain/Sex: SYRIAN/MALE, Target Tissue: Type of Lesion: LUNG: ADENOMA, Dose [Carcinogen]: 40 MG/KG ONCE
  tumour outcome (control, treated, inhibition, significance): 1/12 (8%), 2/26 (8%), 0%, not significant
Dose [Inhibitor]: 0.05, 0.1 OR 0.2 MILLIMOLAR/KG DIET FOR 32 WK STARTING 1 WK AFTER THE CARCINOGENDOSE (STUDY DURATION: 33 WK), Strain/Sex: SYRIAN/MALE, Target Tissue: Type of Lesion: PANCREAS: ADENOMA, Dose [Carcinogen]: 40 MG/KG ONCE
  tumour outcome (control, treated, inhibition, significance): 12/12 (100%), 26/26 (100%), 0%, not significant
Dose [Inhibitor]: 0.05, 0.1 OR 0.2 MILLIMOLAR/KG DIET FOR 32 WK STARTING 1 WK AFTER THE CARCINOGENDOSE (STUDY DURATION: 33 WK), Strain/Sex: SYRIAN/MALE, Target Tissue: Type of Lesion: PANCREAS: CARCINOMA, Dose [Carcinogen]: 40 MG/KG ONCE
  tumour outcome (control, treated, inhibition, significance): 6/12 (50%), 13/26 (50%), 0%, not significant
Dose [Inhibitor]: 0.05, 0.1 OR 0.2 MM/KG DIET FOR 32 WK STARTING 1 WK AFTER THE CARCINOGEN DOSE (STUDY DURATION: 33 WK), Strain/Sex: SYRIAN/FEMALE, Target Tissue: Type of Lesion: PANCREAS: ADENOCARCINOMA, Dose [Carcinogen]: 40 MG/KG ONCE
  tumour outcome (control, treated, inhibition, significance): 2/10 (20%), 2/23 (9%), 55%, not significant
Dose [Inhibitor]: 0.05, 0.1 OR 0.2 MM/KG DIET FOR 32 WK STARTING 1 WK AFTER THE CARCINOGEN DOSE (STUDY DURATION: 33 WK), Strain/Sex: SYRIAN/FEMALE, Target Tissue: Type of Lesion: PANCREAS: CARCINOMA IN SITU, Dose [Carcinogen]: 40 MG/KG, ONCE, ONE WK PRIOR TO START OF AGENT TREATMENT
  tumour outcome (control, treated, inhibition, significance): 1/10 (10%), 7/23 (30%), -200%, not significant
Dose [Inhibitor]: 0.05, 0.1 OR 0.2 MM/KG DIET FOR 32 WK STARTING 1 WK AFTER THE CARCINOGEN DOSE (STUDY DURATION: 33 WK), Strain/Sex: SYRIAN/FEMALE, Target Tissue: Type of Lesion: PANCREAS: INTRADUCTAL CARCINOMA, Dose [Carcinogen]: 40 MG/KG, ONCE, ONE WK PRIOR TO START OF AGENT TREATMENT
  tumour outcome (control, treated, inhibition, significance): 2/10 (20%), 3/23 (9%), 55%, not significant
Dose [Inhibitor]: 0.05, 0.1 OR 0.2 MM/KG DIET FOR 32 WK STARTING 1 WK AFTER THE CARCINOGEN DOSE (STUDY DURATION: 33 WK), Strain/Sex: SYRIAN/MALE, Target Tissue: Type of Lesion: PANCREAS: ADENOCARCINOMA, Dose [Carcinogen]: 40 MG/KG, ONCE, ONE WK PRIOR TO START OF AGENT TREATMENT
  tumour outcome (control, treated, inhibition, significance): 1/12 (8%), 2/26 (8%), 0%, not significant
Dose [Inhibitor]: 0.05, 0.1 OR 0.2 MM/KG DIET FOR 32 WK STARTING 1 WK AFTER THE CARCINOGEN DOSE (STUDY DURATION: 33 WK), Strain/Sex: SYRIAN/MALE, Target Tissue: Type of Lesion: PANCREAS: CARCINOMA IN SITU, Dose [Carcinogen]: 40 MG/KG, ONCE, ONE WK PRIOR TO START OF AGENT TREATMENT
  tumour outcome (control, treated, inhibition, significance): 3/12 (25%), 8/26 (31%), -24%, not significant
Dose [Inhibitor]: 0.05, 0.1 OR 0.2 MM/KG DIET FOR 32 WK STARTING 1 WK AFTER THE CARCINOGEN DOSE (STUDY DURATION: 33 WK), Strain/Sex: SYRIAN/MALE, Target Tissue: Type of Lesion: PANCREAS: INTRADUCTAL CARCINOMA, Dose [Carcinogen]: 40 MG/KG, ONCE, ONE WK PRIOR TO START OF AGENT TREATMENT
  tumour outcome (control, treated, inhibition, significance): 2/12 (17%), 3/26 (12%), 29%, not significant
Dose [Inhibitor]: 0.05, 0.1 OR 0.2 MM/KG DIET FOR 32 WK STARTING 1 WK AFTER THE CARCINOGEN DOSE (STUDY DURATION: 33 WK), Strain/Sex: SYRIAN/MALE, Target Tissue: Type of Lesion: PANCREAS: MICROCARCINOMA, Dose [Carcinogen]: 40 MG/KG, ONCE, ONE WK PRIOR TO START OF AGENT TREATMENT
  tumour outcome (control, treated, inhibition, significance): 3/12 (25%), 4/26 (15%), 40%, not significant
